pIC50: −log10 of the molar value. Values after ≈ are worked out from the molar mass of the structure shown. Where two headings read alike, the source gives them in different places.
Experiments:
[1] = system: Escherichia coli ATCC 8739; assay: Broth microdilution MIC and MBC; assay type: cell-based; conditions: for MIC: ATCC8739, 24 h
Procedure: (§1) The following test microorganisms used in this work were acquired from Sigma-Aldrich: Pseudomonas aeruginosa ATCC 9027, Escherichia coli ATCC 8739, Staphylococcus aureus ATCC 6538, and Candida albicans ATCC 10231. The stock cultures were preserved in TSB or YPD with 15% glycerol, for bacteria and yeast cells, respectively, at −80 °C. Isolated colonies from an 18- to 24-h agar plate were transferred to MHB for bacteria and RPMI-1640 for C. albicans.
(§2) MIC were determined using the broth microdilution method in 96-well microplates, according to the M07-A10 [69] standard for bacteria and the M27-A3 [70] for Candida. Briefly, two-fold dilutions of a 40 µL/mL SlEOs were prepared to obtain a final concentration range of 0.08–20 µL/mL with 0.5% Tween®80 and 2.5% DMSO. The antimicrobial activities of main compounds were also tested in the concentration range of 0.12–15 mM with 0.5% Tween®80 and 2.5% DMSO as solvent. The final strain concentration was 5 × 10^5 CFU/mL in MHB for the bacteria and 0.5−2.5 × 10^3 in RPMI-1640 for the yeast. These plates were incubated for 24 h for bacteria and 48 h for Candida, both at 35 ± 1 °C, under aerobic conditions on a plate shaker at 100 rpm. Streptomycin (0.06–8.00 µg/mL) and fluconazole (0.13–16 µg/mL) were used as reference antibacterial and antifungal compound, respectively. […] MIC is defined as the lowest concentration of EO or individual compound with no visible growth of microorganisms, at the end of the incubation period. […] All determinations were carried out in triplicate.

[2] = system: Staphylococcus aureus ATCC 6538; assay: Broth microdilution MIC and MBC; assay type: cell-based; conditions: for MIC: ATCC6538, 24 h
Procedure: as §1, §2

[3] = Chelating power (ChP) method; conditions: individual compounds; maximum assay concentration 100 mM
Procedure: (§3) Five antioxidant methods were performed with SlEOs and their main individual compounds in triplicate. In the oxygen radical absorbance capacity (ORAC) assay, peroxyl radicals are produced by 2,2′-Azobis(2-methylpropionamidine) dihydrochloride (AAPH), which reacts with fluorescein giving a non-fluorescent compound [61]. The antioxidants are able to scavenge these peroxyl radicals. Trolox was used as the reference antioxidant. The 2,2-diphenyl-1-picrylhydrazyl (DPPH) and 2,2′-azino-bis(3-ethylbenzothiazoline-6-sulphonic acid) (ABTS) methods measure the bleaching produced by the reduction of the coloured DPPH and ABTS radicals. Trolox was used as the reference antioxidant. The RdP method measure the ability to reduce ferric ions, according to the method of Oyaizu. Ascorbic acid was the reference antioxidant used in this method. The ChP method measured the ability to chelate Fe^2+ ion, following the method of Miguel et al.. EDTA was used as reference antioxidant. The SlEOs were diluted in 100% ethanol in the DPPH, ABTS, RdP and ChP methods, whereas in the ORAC method, SlEOs were diluted in 15% ethanol to obtain a final concentration of 5% ethanol in the reaction medium. All measurements were made at the end-point of the reaction, except in the ORAC method (Figure S5).

[4] = Oxygen radical absorbance capacity (ORAC) assay; conditions: individual compounds, maximum assay concentration 100 mM
Procedure: as §3

[5] = Reducing power (RdP) method; conditions: individual compounds; maximum assay concentration 100 mM
Procedure: as §3

AChE VI-S = biological target: T1, AChE VI-S (Electrophorus electricus, UniProt O42275); assay: biochemical; conditions: for concentration at which 15% inhibition of AChE reached: IC50 not calculable due to low water solubility
T1 construct: purchased Sigma-Aldrich
Procedure: AChE VI-S from Electrophorus electricus was purchased from Sigma-Aldrich. AChE inhibitory activity was measured in triplicate using a 96-well microplate reader at 25 °C, according to Ellman’s method. This enzyme hydrolyzes acetylthiocholine to acetate and thiocholine, which reacts with 5,5-dithio-bis-(2-nitrobenzoic acid) (DTNB) producing a coloured compound with absorbance at 412 nm. The reaction was measured for 10 min at 25 °C, using a 96-well microplate reader. SlEOs were diluted in 15% ethanol, to obtain a final concentration of 5% ethanol in the reaction medium.
(§4) The DI in both antienzymatic assays were calculated using Equation (1):(1) DI (%)= ν0−νi/ν0 × 100 where v0 and v1 are the steady state rates without and with inhibitor, respectively. The inhibitions of LOX were reported as DI at 150 µg/mL of each SlEO. […] To calculate the IC50 values, data of DI (%) of seven different concentrations of each SlEO were plotted and fitted by non-linear regression according to Equation (2) using Sigma Plot software (systatsoftware.com) (Figure S6). The inhibitions of LOX and AChE by individual compounds were reported as IC50 or DI, depending on their inhibition capacities and solubilities.
(§5) (2) DI (%)= DImax [I]0/IC50+ [I]0

[6] = system: Candida albicans ATCC 10231; assay: Broth microdilution MIC and MFC; assay type: cell-based; conditions: for MIC: ATCC10231, 48 h
Procedure: as §1, §2

DPPH radical method = conditions: individual compounds; maximum assay concentration 100 mM
Procedure: as §3

ABTS radical method = conditions: individual compounds; maximum assay concentration 100 mM
Procedure: as §3

LOX = biological target: T2, LOX (Glycine max, UniProt P08170); assay: LOX inhibition assay; assay type: biochemical, Glycine max (soybean); conditions: for DI (%) of LOX: at 514.2 µg/mL, could not reach 50% inhibition
T2 construct: purchased Sigma-Aldrich
Procedure: A LOX preparation from Glycine max (soybean) was acquired from Sigma-Aldrich. LOX inhibitory activity was determined as previously reported, based on the absorption at 234 nm of the hydroperoxyde conjugated dienes (ε = 25,000 M^−1 cm^−1), which are generated from the oxidation of linoleic acid in the presence of oxygen and LOX. This assay was carried out on a double beam Lambda 35 spectrophotometer (PerkinElmer, Madrid, Spain) with the UV-Winlab software, at 25 °C.
as §4, §5

T1 sequence (O42275 24-633): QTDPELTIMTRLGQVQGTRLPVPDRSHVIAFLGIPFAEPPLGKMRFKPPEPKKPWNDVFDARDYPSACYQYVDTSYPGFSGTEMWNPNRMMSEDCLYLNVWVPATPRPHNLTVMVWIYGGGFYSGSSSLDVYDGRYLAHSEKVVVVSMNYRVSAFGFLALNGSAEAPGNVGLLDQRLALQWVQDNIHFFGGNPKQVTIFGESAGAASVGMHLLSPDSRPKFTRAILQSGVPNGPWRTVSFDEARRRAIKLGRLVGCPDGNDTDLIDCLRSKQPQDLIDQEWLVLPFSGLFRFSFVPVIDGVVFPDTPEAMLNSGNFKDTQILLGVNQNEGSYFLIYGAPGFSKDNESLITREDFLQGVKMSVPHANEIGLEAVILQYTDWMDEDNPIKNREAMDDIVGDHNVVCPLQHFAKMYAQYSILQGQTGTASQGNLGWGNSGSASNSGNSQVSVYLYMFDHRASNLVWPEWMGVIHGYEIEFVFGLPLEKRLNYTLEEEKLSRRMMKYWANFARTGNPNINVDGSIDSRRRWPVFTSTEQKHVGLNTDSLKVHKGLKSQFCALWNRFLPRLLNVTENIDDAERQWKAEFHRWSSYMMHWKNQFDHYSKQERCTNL
T2 sequence (P08170 whole entry): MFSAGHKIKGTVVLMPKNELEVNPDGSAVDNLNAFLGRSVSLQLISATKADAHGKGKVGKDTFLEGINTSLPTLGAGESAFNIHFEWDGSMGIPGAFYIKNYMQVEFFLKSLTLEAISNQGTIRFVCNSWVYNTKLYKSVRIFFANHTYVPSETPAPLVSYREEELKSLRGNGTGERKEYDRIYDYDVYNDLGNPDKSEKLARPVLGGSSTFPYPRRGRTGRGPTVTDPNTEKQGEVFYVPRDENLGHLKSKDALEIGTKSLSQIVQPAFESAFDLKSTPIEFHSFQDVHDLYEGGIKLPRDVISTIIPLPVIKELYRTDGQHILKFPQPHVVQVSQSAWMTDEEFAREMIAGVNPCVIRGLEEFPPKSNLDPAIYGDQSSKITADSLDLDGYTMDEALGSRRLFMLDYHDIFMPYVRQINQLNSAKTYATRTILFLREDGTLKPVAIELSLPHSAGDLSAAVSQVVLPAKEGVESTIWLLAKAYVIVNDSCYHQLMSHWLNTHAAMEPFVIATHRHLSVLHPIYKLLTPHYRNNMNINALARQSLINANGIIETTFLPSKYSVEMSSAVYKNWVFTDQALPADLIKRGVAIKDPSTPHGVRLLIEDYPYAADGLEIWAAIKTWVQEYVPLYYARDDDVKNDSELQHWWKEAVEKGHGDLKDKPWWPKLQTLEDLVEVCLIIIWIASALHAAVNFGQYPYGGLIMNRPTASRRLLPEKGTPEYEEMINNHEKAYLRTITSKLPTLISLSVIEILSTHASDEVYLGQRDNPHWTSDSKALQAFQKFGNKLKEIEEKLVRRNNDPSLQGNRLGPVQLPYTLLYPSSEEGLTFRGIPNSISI

Row | SMILES | ChP [3] | ORAC [4] | RdP [5] | DPPH (DPPH radical method) | ABTS (ABTS radical method) | MIC ([1]; read-out: MIC) [µg/mL] | MBC ([1]; ATCC8739, read-out: MBC) [µg/mL] | MIC ([2]; read-out: MIC) [µg/mL] | MBC ([2]; ATCC6538, read-out: MBC) [µg/mL] | pIC50 (LOX) | MIC ([6]; read-out: MIC) [µg/mL] | MFC ([6]; ATCC10231, read-out: MFC) [µg/mL] | also measured
1 | C=C1C2CCC(C2)C1(C)C (stereo not shown) [Camphene] | 1.6 ± 0.1 µmol EDTAE/mmol X | N/D (Activity lower than 0.05 units at a maximum assay concentration of 100 mM) | 0.5 ± 0.0 µmol AAE/mmol X | N/D (Activity lower than 0.05 units at a maximum assay concentration of 100 mM) | 0.1 ± 0.0 µmol TE/mmol X | – | – | – | – | – | – | – | MBC ([1]; ATCC8739): > 2000 µg/mL; MIC [1]: > 2000 µg/mL; MBC ([2]; ATCC6538): > 2000 µg/mL; MIC [2]: > 2000 µg/mL; concentration at which 15% inhibition of AChE reached (AChE VI-S): 42.4 ± 3.7 µg/mL; MFC ([6]; ATCC10231): > 2000 µg/mL; MIC [6]: > 2000 µg/mL
2 | CC(=O)OC1CC2CCC1(C)C2(C)C (stereo not shown) [Bornyl acetate] | N/D (Activity lower than 0.05 units at a maximum assay concentration of 100 mM) | N/D (Activity lower than 0.05 units at a maximum assay concentration of 100 mM) | N/D (Activity lower than 0.05 units at a maximum assay concentration of 100 mM) | N/D (Activity lower than 0.05 units at a maximum assay concentration of 100 mM) | N/D (Activity lower than 0.05 units at a maximum assay concentration of 100 mM) | > 2900 | > 2900 | 2900 | > 2900 | 3.42 | > 2900 | > 2900 | –
3 | CC1=CCC(O)(C(C)C)CC1 (stereo not shown) [Terpinen-4-ol] | 1.7 ± 0.1 µmol EDTAE/mmol X | 356.0 ± 13.6 µmol TE/mmol X | N/D (Activity lower than 0.05 units at a maximum assay concentration of 100 mM) | N/D (Activity lower than 0.05 units at a maximum assay concentration of 100 mM) | 0.3 ± 0.0 µmol TE/mmol X | 2300 (≈ 14.9 mM) | 2300 (≈ 14.9 mM) | 1100 (≈ 7.13 mM) | 2300 (≈ 14.9 mM) | – | > 2300 | > 2300 | DI (%) of LOX (LOX): 29.6 ± 1.0%; concentration at which 15% inhibition of AChE reached (AChE VI-S): 582.4 ± 38.1 µg/mL
4 | CC12CCC(CC1)C(C)(C)O2 [1,8-Cineole] | 1.1 ± 0.1 µmol EDTAE/mmol X | N/D (Activity lower than 0.05 units at a maximum assay concentration of 100 mM) | N/D (Activity lower than 0.05 units at a maximum assay concentration of 100 mM) | N/D (Activity lower than 0.05 units at a maximum assay concentration of 100 mM) | N/D (Activity lower than 0.05 units at a maximum assay concentration of 100 mM) | > 2300 | > 2300 | > 2300 | > 2300 | – | > 2300 | > 2300 | ORAC ([4]; listed as 1,8-cineole): did not show any ORAC antioxidant activity; DI (%) of LOX (LOX): 30.9 ± 1.1%; pIC50 (AChE VI-S): 3.64
5 | CC1=CCC2CC1C2(C)C (stereo not drawn) [α-Pinene] | 16.6 ± 1.1 µmol EDTAE/mmol X | N/D (Activity lower than 0.05 units at a maximum assay concentration of 100 mM) | N/D (Activity lower than 0.05 units at a maximum assay concentration of 100 mM) | N/D (Activity lower than 0.05 units at a maximum assay concentration of 100 mM) | N/D (Activity lower than 0.05 units at a maximum assay concentration of 100 mM) | 500 (≈ 3.67 mM) | 1000 (≈ 7.34 mM) | 2100 (≈ 15.4 mM) | > 2100 | – | 500 (≈ 3.67 mM) | 500 (≈ 3.67 mM) | pIC50 (AChE VI-S): 2.48
6 | C=CC(C)(O)CCC=C(C)C (stereo not shown) [Linalool] | 96.9 ± 5.8 µmol EDTAE/mmol X | 341.9 ± 18.5 µmol TE/mmol X | N/D (Activity lower than 0.05 units at a maximum assay concentration of 100 mM) | N/D (Activity lower than 0.05 units at a maximum assay concentration of 100 mM) | 0.1 ± 0.0 µmol TE/mmol X | 1100 (≈ 7.13 mM) | 2300 (≈ 14.9 mM) | 600 (≈ 3.89 mM) | 1100 (≈ 7.13 mM) | 2.48 | 2300 (≈ 14.9 mM) | 2300 (≈ 14.9 mM) | –
7 | CC12CCC(CC1=O)C2(C)C (stereo not shown) [Camphor] | N/D (Activity lower than 0.05 units at a maximum assay concentration of 100 mM) | N/D (Activity lower than 0.05 units at a maximum assay concentration of 100 mM) | N/D (Activity lower than 0.05 units at a maximum assay concentration of 100 mM) | N/D (Activity lower than 0.05 units at a maximum assay concentration of 100 mM) | N/D (Activity lower than 0.05 units at a maximum assay concentration of 100 mM) | > 2300 | > 2300 | > 2300 | > 2300 | 2.56 | > 2300 | > 2300 | ORAC ([4]; listed as camphor): did not show any ORAC antioxidant activity
